Assay type in all cases: cell-based, human
One test deals with SNAI1 gene. The test is described as follows: Real-time PCR of SNAI1 gene. Particulars: HBEC-KL cell line; 50 uM chloroquine, 24 hours. The procedure:
After synthesizing complementary DNA (cDNA) using the TOPscript·8 cDNA synthesis kit (Enzynomics, EZ0054), gRT-PCR was performed with TCPreal™ gRCR 2× PreMIX (SYBR Green with low ROX) (Enzynomics, RT501M). GAPDH and beta-actin were used for RNA normalization. qRT-PCR was performed with a StepOne Plus (Applied Biosystems) instrument.

The subject of a further test is Snail. The test is described as follows: Western blot of Snail protein. Particulars: HBEC-KL cell line; chloroquine 12 to 48 hours.
Test [1] deals with total protein acetylation. The test is described as follows: Western blot of total protein acetylation. The conditions noted are these: HBEC-KL; 50 uM chloroquine, 24 hours; same effect = reduced. The protocol: Cells were harvested, washed with PBS, and lysed on ice with RIPA buffer containing protease and phophatase inhibitor cocktail (GenDEPOT). After 15 minutes of incubation, the cell lysates were centrifuged at 15,000 rpm at 4° C. for 10 minutes. Protein concentration was measured by Bradford assay (Bio-rad, 500-0006). Equal amounts of total protein were placed on an SDS gel electrophoresis and transferred to a PVDF membrane (Bio-rad). The membrane was blocked with 5% skim milk for 1 hour at room temperature and incubated overnight at 4° C. with primary antibody in a buffer containing 0.1% Tween-20. Subsequently, the membrane was washed three times with Tween-PBS buffer and incubated for 1 hour at room temperature using a secondary antibody diluted in blocking buffer containing 0.1% Tween-20. Subsequently, the membrane was washed three times for 10 minutes each using Tween-TBS. Densitometry of Western blots was measured using ImageJ software.
(In general: In western blotting, separated proteins are transferred to a membrane and probed.)

Another test deals with acetylated Snail. Briefly: Immunoprecipitation-immunoblot of acetylated Snail. The conditions noted are these: KRAS-mutant pancreatic cancer cells; 100 uM chloroquine, 24 hours. The protocol:
Cell lysates (1 μg protein) were incubated overnight at 4° C. on anti-FLAG® M2 Affinity Gel (Sigma, A2220) or anti-acetyl-lysine antibody coated agarose (ImmuneChem Pharmaceuticals, ICP0388). The immunoprecipitate was then washed three times in IP buffer, and the immunoprecipitated complex was dissolved and separated by boiling in IP buffer for 5 minutes.
For SDS-PAGE electrophoresis, the immunoprecipitated complex was transferred to a nitrocellulose membrane and the membrane was blocked and then incubated for 1 hour at room temperature with Primary antibody and secondary antibody (VeriBlot for IP Detection Reagent (HRP) (Abcam, #ab131366), and anti-mouse IgG tor IP (HRP) (Abeam, #ab131368)).
After washing 3 times, the membrane was incubated with the secondary antibody.

The next test deals with Intracellular acetyl-CoA. The test is described as follows: Acetyl-CoA measurement. The conditions noted are these: KRAS-mutant pancreatic cancer cells; 100 uM chloroquine, 24 hours. The protocol:
Intracellular acetyl-CoA levels were calculated in the pmol range using the PicoProbe Acetyl-CoA Assay Kit (Biovision, K317). […] After correcting the background in all readings, the value of each sample was determined and normalized to the protein concentration of each sample.

The next test relates to LC3. The test is described as follows: Autophagic flux (LC3 Western blot, mRFP-GFP-LC3 lysosomal delivery assay). Particulars: HBEC-KL cells; 50 uM chloroquine for 6 hours.
Test [2] has as its system KRAS-mutant pancreatic cancer cells. Briefly: Matrigel invasion assay, pancreatic cancer cell lines. Particulars: 100 uM chloroquine, 24 hours. The procedure: FIG. 12C illustrates changes in matrigel invasiveness after treating the pancreatic cancer cell line with 100 uM chloroquine (CQ) for 24 hours, and the bright-field micrographs of cells infiltrating through the matrigel coated transwell membrane (top) and quantification results (bottom) are shown.
For the 2D invasion assay, the inserts were pre-coated with 300 μg/ml Matrigel (Coming, 354234). After staining with […] dye (Bio-Rad, 1450013), 1×10^5 live cells per 8-um-pore cell-culture insert (Costar. 3422) were seeded in 0.5% ACL medium. 10% ACL medium was added to the outside of the insert. In the case of lung cancer and pancreatic cancer cell lines, after inoculation in 1% RPMI medium, 20% RPMI medium was added to the outside of the insert. Plates were incubated for 24 hours at 37° C. After incubation, the insert was fixed with 3.7% PFA, washed, stained with 0.4% crystal violet, and the upper membrane was washed and dried.

Turning to `CCN(CC)CCCC(C)Nc1ccnc2cc(Cl)ccc12` (stereo not shown) [CQ, chloroquine], the “SNAI1 mRNA expression level” value in the test with SNAI1 gene is listed as “no change”. The “expression level of Snail protein” value with Snail is given as “reduced”. In addition, in test [1], the overall protein acetylation result was “the same effect”. For the same compound, the “acetylated Snail” value in the test on acetylated Snail was “reduced”. For the same compound, in the test on Intracellular acetyl-CoA, the acetyl-CoA result is listed as “reduced”. Also, the LC3-II accumulation result in the test with LC3 is listed as “high levels”. Moreover, the “2D Matrigel transwell invasion” value in test [2] is recorded as “reduced”.

The values above are taken from patent US20240041842A1, “PHARMACEUTICAL COMPOSITION FOR INHIBITING CANCER METASTASIS” (INDUSTRY-ACADEMIC COOPERATION FOUNDATION, YONSEI UNIVERSITY, priority 2021, published 2024).
